# Source: patent US20230414612A1, “PHARMACEUTICAL COMPOSITION COMPRISING A CAP-DEPENDENT ENDONUCLEASE INHIBITOR” (TaiGen Biotechnology Co., Ltd., priority 2022, published 2023)
# Experiments:
# [1] = Dissolution assessment: solubility in FaSSIF; assay type: physicochemical
# Procedure: An amount of Compound A (about 6 mg) and amorphous solid dispersion (equivalent to around 6 mg Compound A) were weighed into an 8 ml bottle, and 6 ml FaSSIF (Fasted state simulated intestinal fluid) was added (target concentration 1.0 mg/ml). Then the suspensions were stirred at thermomixer at 37° C. under 600 rpm 200 μL of suspensions were withdrawn at setting time (such as 5 min) and then centrifuged at 14000 rpm for 4 min. After that, 100 μL of supernatant was diluted with CAN five times to prevent precipitation, and was analyzed by HPLC.
# FaSSIF was prepared by following steps: 1) Place 0.1024 g sodium hydroxide, 0.7518 g sodium dihydrogen phosphate anhydrous and 1.5470 g sodium chloride in a 250 mL volumetric flask, add about 225 mL water, and adjust the pH to 6.5 with 1N sodium hydroxide or 1N hydrochloric acid. Make up to volume (250 mL) with pure water. 2) Place and dissolve 0.4480 g SIF Powder Original with 100 mL of buffer (from step 1) in a 200 mL volumetric flask, add water to volume and mix well.
# [2] = system: influenza virus A/PR/8/34; experiment: Influenza virus growth in lungs of infected BALB/c mice; assay type: in vivo; conditions: 5 and 25 mg/kg; 100 pfu/mouse A/PR/8/34; one-day post-infection
# Procedure: (§1) The term “therapeutically effective amount” refers to the amount or dose of an active compound or salt thereof that is sufficient to prevent development of, or alleviate to some extent, one or more of the symptoms of the disorder, disease, or condition being treated. […] In addition, the effect of Compound A on influenza virus growth in lungs of BALB/c mice infected with low infectious dose 100 pfu/mouse of A/PR/8/34 at one-day post-infection was conducted. […] Therefore, based on the results of these preliminary in vivo animal studies, it is estimated that the reasonable therapeutically effective amount of the compound of Formula (I) or a pharmaceutically acceptable salt thereof for human can be about 5-200 mg, about 5-150 mg, about 5-100 mg, about 10-80 mg, about 10-40 mg, about 10-30 mg, about 10-20 mg, about 5-10 mg, about 5-20 mg, about 20-40 mg, or about 40-80 mg. For example but not limited thereto, the therapeutically effective amount of the compound of Formula (I) or a pharmaceutically acceptable salt thereof is 5 mg, 10 mg, 15 mg, 20 mg, 25 mg, 30 mg, 35 mg, 40 mg, 45 mg, 50 mg, 55 mg, 60 mg, 65 mg, 70 mg, 75 mg, 80 mg, 85 mg, 90 mg, 95 mg, 100 mg, 105 mg, 110 mg, 115 mg, 120 mg, 125 mg, 130 mg, 135 mg, 140 mg, 145 mg, 150 mg, 155 mg, 160 mg, 165 mg, 170 mg, 175 mg, 180 mg, 185 mg, 190 mg, 195 mg, or 200 mg.
# [3] = 14-day repeated-dose oral toxicity study; assay type: in vivo; conditions: 300 mg/kg/day
# Procedure: as §1
# [4] = Stability study of Compound A and amorphous solid dispersions (total impurity level, TRS %); assay type: physicochemical
# Procedure: The amorphous solid dispersions were stored at 4° C. (closed) or 40° C./75% RH (closed and open state). After 10 days or 4 weeks, samples were observed by camera, characterized by XRPD and analyzed by HPLC for purity as well as kinetic solubility. All the samples for closed storage conditions were put into clear glass vials with gaskets and screwed caps. All the samples for open storage conditions were put into clear glass vials with cap, while the month of vials was covered by aluminium foil with pinholes to avoid cross-contamination.
# The sample number in TABLE 2 corresponds to the sample number in TABLE 1.
# [5] = system: influenza virus (A/PR/8/34); experiment: In vivo influenza virus infection mouse model (survival rate, body weight change); conditions: 5 mg/kg, oral, BALB/c mouse infected with A/PR/8/34
# Procedure: as §1
structure (smiles),measurement,setting,value
"COC(=O)OCOc1c2n(ccc1=O)N([C@H]1c3ccccc3CSc3c1ccc(F)c3F)CC1(CC1)C2=O [Compound A, [1-((11S)-7,8-difluoro(6H,11H-dibenzo[c,f]thiepin-11-yl))-4,6-dioxospiro[1,2,3,9-tetrahydropyridino[1,2-e]pyridazine-3,1′-cyclopropane]-5-yloxy]methyl methoxyformate]","Solubility, 5 min","[1]; FaSSIF, 37° C., 600 rpm, target concentration 1.0 mg/ml, 5 min",4.95 µg/mL
same,"Solubility, 15 min","[1]; FaSSIF, 37° C., 600 rpm, target concentration 1.0 mg/ml, 15 min",4.89 µg/mL
same,aqueous solubility,[1]; statement in words,low aqueous solubility
same,Virus titers in lungs vs vehicle treated group,[2],significantly lower
same,deaths or toxic effect,[3],did not cause deaths or have toxic effect
same,4° C. Closed for 4 wks TRS %,"[4]; 4° C., closed, 4 weeks",0.76%
same,40° C./75% RH Closed for 4 wks TRS %,"[4]; 40° C./75% RH, closed, 4 weeks",0.86%
same,40° C./75% RH Open for 4 wks TRS %,"[4]; 40° C./75% RH, open, 4 weeks (cells without #)",0.82%
same,Initial TRS %,"[4]; initial, total relative substances by HPLC",0.79%
same,antiviral efficacy on body weight change,[5],good antiviral efficacy
same,antiviral efficacy on survival rate,[5],good antiviral efficacy
